# From patent US20140045885A1, “Decoquinate, 4-hydroxyquinolones and napthoquinones combined with levamisole, Imidazothiazole, for the prevention and treatment of sarcocystosis and equine protozoal myeloencephalitis caused by Sarcocystis and Neospora and other apicomplexan protozoans” (priority 2012, published 2014)
# Like-named read-outs stand apart in the source and are kept apart here.
# How the values were obtained:
# EPM = details: cited from earlier work; for cure rate / relapse rate: EPM treatment in horses; for efficacy in horses to improve one grade of disease: EPM treatment
# [1] = cited from earlier work
# S. neurona = details: cell cultures infected with S. neurona; cited from earlier work
# [2] = Safety at the treatment dose in 150 horses; type: in vivo, horse; details: decoquinate 0.5 mG/kG and levamisole 1 mG/kG alone and in combination
# [3] = system: S. neurona infections or EPM; assay: Trial in horses with presumptive diagnosis of EPM; type: in vivo, horse
# Experimental: A trial was initiated in which veterinarians conducted neurological examinations and determined a presumptive diagnosis of EPM. […] The phenotype of S. neurona eliciting antibody production was determined for each animal. […] A neurological exam was conducted at the end of the treatment period and two to four weeks following treatment. Two to four weeks after treatment antibody levels were again assessed for serum antibody levels to S. neurona by phenotype. […] Veterinarians involved in the study elected to start decoquinate therapy at 0.05 mG/kG if the animals had received anti-protozoal therapy in the past and the case was considered a relapse of EPM.
# [4] = system: Sarcocystis neurona merozoites (SN6 strain); details: 0.1 microgram/ml decoquinate for 5 or 15 minutes, washed off, read at 6 weeks; cited from earlier work
# [5] = system: Sarcocystis neurona merozoites (SN3 strain); details: 0.1 microgram/ml decoquinate for 10 or 20 minutes, washed off, cultures maintained 16 days, controls 25% CPE; cited from earlier work
# [6] = system: Sarcocystis neurona merozoites (SN2 strain); details: 0.1 microgram/ml decoquinate for 10 or 20 minutes, washed off, cultures maintained 16 days, controls 40% CPE; cited from earlier work
# [7] = system: Sarcocystis neurona merozoites (SN3 strain); details: cited from earlier work
# [8] = cited from earlier work; remark: listed apart in the source
# [9] = in vivo; cited from earlier work
# [10] = horses, 5 mg/kg daily for 10 days
smiles,measurement,setting,value
N#CC(c1ccc(Cl)cc1)c1c(Cl)cc(-n2ncc(=O)[nH]c2=O)cc1Cl (stereo not shown) [diclazuril],cure rate,EPM,less than 25%
same,relapse rate,EPM,60%
same,efficacy in horses to improve one grade of disease,EPM,60%
same,time after feeding at which drug was found in serum,[1]; fed to horses,one
same,anti-S. neurona activity in cell cultures,S. neurona,has anti-S. neurona activity
c1ccc([C@H]2CN3CCSC3=N2)cc1 [levamisole],adverse reactions,[2],no adverse reactions
"CCCCCCCCCCOc1cc2c(O)c(C(=O)OCC)cnc2cc1OCC [decoquinate, 6-declyoxy-7-ethoxy-4-hydroxy-3-quinoline-carboxylic acid ethyl ester]",time of therapy until noted improvement,[3]; decoquinate alone 0.05 mG/kG versus decoquinate/levamisole 0.5 mG/kG and 1.0 mg/kG,> 5 days
same,treatment outcome in mildly afflicted horses,"[3]; prevention dose 0.05 mG/kG decoquinate alone, 90 days, 7 horses",success obtained in all the horses
same,success in historically relapsing horses,"[3]; relapse cases after Marquis (17) or pyrimethamine/sulfadiazine (2), decoquinate therapy started at 0.05 mG/kG",100%
same,adverse reactions,[2],no adverse reactions
same,parasites or parasite induced lesions in treated infected flasks,[4],No parasites or parasite induced lesions were seen
same,parasites or parasite induced lesions in treated infected flasks,[5],No parasites or parasite induced lesions were seen
same,cytopathic effect (CPE),[6],5%
same,reduction in merozoite production,[7]; 0.0001 microgram/ml continuously for 10 days,40%
same,reduction in merozoite production,[7]; 0.001 microgram/ml continuously for 10 days,87%
same,reduction in merozoite production,[7]; 0.01 microgram/ml continuously for 10 days,98%
Cc1cc(-n2c(=O)[nH]c(=O)n(C)c2=O)ccc1Oc1ccc(SC(F)(F)F)cc1 [toltrazuril],cure rate,EPM,less than 25%
same,relapse rate,EPM,60%
same,efficacy in horses to improve one grade of disease,EPM,60%
same,mean CSF concentration,[1]; [10],160 µg/mL
same,plasma levels,[1]; [10],20000 ng/mL
same,oral absorption,"[1]; in vivo, po",good oral absorption
same,elimination time,[1]; in vivo,48 to 72 h
same,lipid solubility,[8],good lipid solubility
same,"complications, serum chemistry values, complete blood counts",[9],has not been shown to result in any complications
